# Measurements from patent publication US20200341000A1, “METHOD OF SCREENING COMPOUNDS FOR TREATING CNS DISORDERS” (SAGE THERAPEUTICS, INC., priority 2017, published 2020).
# Entries after “also recorded” stand apart in the source; their conditions may differ. Marks after values point to notes of the source that are not given here.
# Legend:
# [1] = system: GABAA receptor β3 subunit S408/9 phosphorylation; experiment: Immunoblot of β3 S408/9 phosphorylation in hippocampal slices; type: cell-based, mice; settings: 100 nM
# Description: Hippocampi were dissected out of acute slices from 8 to 12 week old C57/B16 mice and lysed with phosphate buffer including: 20 mM Tris-HCl, 150 mM NaCl, 5 mM EDTA, 10 mM NaF, 2 mM Na3VO4, 10 mM pyrophosphate, 0.1% SDS and 1% Triton after drug treatment. The β3 subunit was isolated using immunoprecipitation with β3 antibodies, after correction for protein content and the specific activity of labeling. Results were attained by SDS/PAGE followed by autoradiography (Abramian et al., 2010). For biotinylation experiments hippocampi were dissected out of acute slices from 8 to 12 week old C57/B16 mice and incubated in artificial cerebrospinal fluid (ACSF) described above at 30° C. for 1 h for recovery before experimentation. Slices were then placed on ice and incubated for 30 min with 1 mg/mL NHS-SS-biotin (Pierce). Excess biotin was removed by a 50 mM glycine quenching buffer, followed by washing of slices three times in ice-cold ACSF. The tissue was snap frozen on dry ice for 5 min, thawed at 4° C. and lysed. The lysates were solubilized with 2% Triton at 4° C. on a rotating wheel for 1 h. The insoluble material was removed by centrifugation, and 350-500 μg of protein lysate were incubated with NeutrAvidin beads (Pierce) for 18-24 h at 4° C. Bound material was eluted with sample buffer and subjected to SDS/PAGE and then immunoblotted with the indicated antibodies. Blots were then quantified using the CCD-based ChemiDoc XRS ? system. Antibodies against the β3 subunit and the phospho-β3 antibody were generated and verified by the laboratory of S.J.M. (Vien et al., 2015).
# To produce antibodies specific for phosphorylated S443, rabbits were injected with a synthetic peptide corresponding to residues […] of the murine α4 subunit in which the serine residue corresponding to S443 was chemically phosphorylated; […]. Hippocampal slices were treated with vehicle (Con), or SGE-516 for 20 min. Slices were immunoblotted with pS408/9, β3, or actin antibodies. The ratio of pS408/9/β3 immunoreactivity was then normalized to control slices (100%=the line).
# Hippocampal slices were treated with 100 nM ALLO or P4 (progesterone), and S408/9 phosphorylation was then determined as detailed above, n=4 slices (FIG. 18D). Hippocampal slices were treated with 100 nM ORG (FIG. 18E). S408/9 phosphorylation was examined using immunoblotting.
# [2] = system: GT1-7 cells (co-express mPRα and GABAARs), β3 S408/9 phosphorylation; experiment: Immunoblot of β3 S408/9 phosphorylation in GT1-7 cells; type: cell-based; settings: 100 nM, 15 min; n=6
# Description: GT1-7 cells that co-express mPRα and GABAARs were used to measure the level of phosphorylation at S408/9 position of β3 subunit. Quantitative PCR analysis indicated the enrichment of the mPRα mRNA in GT1-7 cells (FIG. 15A upper, figure taken from Thomas and Pang 2012). Expression of mPRα was confirmed using western blotting. 10 and 15 μg of SDS-soluble extracts from GT1-7 cells were immunoblotted with an mPRα specific antibody (FIG. 15A lower).
# GT1-7 cells were treated with 100 nM AllO or P4 for 15 min and immunoblotted with antibodies specifically recognizing β3, actin, and […] β3 subunit (pS408/9). The ratio of pS408/9 β3 subunit immunoreactivity were then normalized to levels seen in vehicle treated to controls, n=6.
# [3] = system: tonic current in dentate gyms granule cells (DGGCs); experiment: Sustained (metabotropic) enhancement of tonic current in DGGCs after 15 min exposure and washout; type: cell-based, mice
# Description: (§1) Brain slices were prepared from 3- to 5-week-old male C57 mice. Mice were anesthetized with isoflurane, decapitated, and brains were rapidly removed and submerged in ice-cold cutting solution containing (mM): 126 NaCl, 2.5 KCl, 0.5 CaCl2, 2 MgCl2, 26 NaHCO3, 1.25 NaH2PO4, 10 glucose, 1.5 sodium pyruvate, and 3 kynurenic acid. Coronal 310 μm thick slices were cut with the vibratome VT1000S (Leica Microsystems, St Louis, Mo., USA). The slices were then transferred into incubation chamber filled with prewarmed (31-32° C.) oxygenated artificial cerebro-spinal fluid (ACSF) of the following composition (in mM): 126 NaCl, 2.5 KCl, 2 CaCl2, 2 MgCl2, 26 NaHCO3, 1.25 NaH2PO4, 10 glucose, 1.5 sodium pyruvate, 1 glutamine, 3 kynurenic acid and 0.005 GABA bubbled with 95% O2-5% CO2. Slices were allowed to recover at 32° C. for at least 1 hr before recording. Exogenous GABA was added in an attempt to standardize ambient GABA in the slice and provide an agonist source for newly inserted extrasynaptic GABAARs.
# (§2) After recovery, a single slice was transferred to a submerged, dual perfusion recording chamber (Warner Instruments, Hamden, Conn., USA) on the stage of an upright microscope (Nikon FN-1) with a 40× water immersion objective equipped with DIC/IR optics. Slices were maintained at 32° C. and gravity-superfused with ACSF solution throughout experimentation and perfused at rate of 2 ml/min with oxygenated (O2/CO2 95/5%) ACSF.
# (§3) Whole-cell currents were recorded from the dentate gyms granule cells (DGGCs) in 310-μm-thick coronal hippocampal slices. Patch pipettes (5-7MΩ) were pulled from borosilicate glass (World Precision Instruments) and filled with intracellular solution of the composition (in mM) as follows: 140 CsCl, 1 MgCl2, 0.1 EGTA, 10 HEPES, 2 Mg-ATP, 4 NaCl and 0.3 Na-GTP (pH=7.2 with CsOH). A 5 min period for stabilization after obtaining the whole-cell recording conformation (holding potential of −60 mV) was allowed before currents were recorded using an Axopatch 200B amplifier (Molecular Devices), low-pass filtered at 2 kHz, digitized at 20 kHz (Digidata 1440A; Molecular Devices), and stored for offline analysis.
# (§4) For tonic current measurements, an all-points histogram was plotted for a 10 s period before and during 100 μM picrotoxin application, once the response reached a plateau level. Recordings with unstable baselines were discarded. Fitting the histogram with a Gaussian distribution gave the mean baseline current amplitude and the difference between the amplitudes before and during picrotoxin was considered to be the tonic current. The negative section of the all-points histogram which corresponds to the inward IPSCs was not fitted with a Gaussian distribution (Kretschmannova et al., 2013; Nusser and Mody, 2002). Series resistance and whole-cell capacitance were continually monitored and compensated throughout the course of the experiment. Recordings were eliminated from data analysis if series resistance increased by >20%. Spontaneous inhibitory post-synaptic currents (sIPSCs) were analyzed using the mini-analysis software (version 5.6.4; Synaptosoft, Decatur, Ga.). Minimum threshold detection was set to 3 times the value of baseline noise signal. To assess sIPSC kinetics, the recording trace was visually inspected and only events with a stable baseline, sharp rising phase, and single peak were used to negate artifacts due to event summation. Only recordings with a minimum of 200 events fitting these criteria were analyzed. sIPSCs amplitude, and frequency from each experimental condition was pooled and expressed as mean±SEM. To measure sIPSC decay, 100 consecutive events were averaged and the decay was fitted to a double exponential and the weighted decay constant (tw) was determined. Statistical analysis was performed by using Student t-test (paired and unpaired where appropriate), where p<0.05 is considered significant.
# α1β2γ2 GABAA receptors = target: T1, α1β2γ2 GABAA receptors (Homo sapiens, UniProt P14867+P18507+P47870); experiment: Whole-cell patch clamp, potentiation of GABA EC20 currents at recombinant synaptic-type receptors (LTK cells); type: cell-based; settings: n = 3; for EC50: α1β2γ2, GABA EC20 (2 μM)
# T1 construct: expressed in transfected cells
# T1 sequence (P14867 28-456): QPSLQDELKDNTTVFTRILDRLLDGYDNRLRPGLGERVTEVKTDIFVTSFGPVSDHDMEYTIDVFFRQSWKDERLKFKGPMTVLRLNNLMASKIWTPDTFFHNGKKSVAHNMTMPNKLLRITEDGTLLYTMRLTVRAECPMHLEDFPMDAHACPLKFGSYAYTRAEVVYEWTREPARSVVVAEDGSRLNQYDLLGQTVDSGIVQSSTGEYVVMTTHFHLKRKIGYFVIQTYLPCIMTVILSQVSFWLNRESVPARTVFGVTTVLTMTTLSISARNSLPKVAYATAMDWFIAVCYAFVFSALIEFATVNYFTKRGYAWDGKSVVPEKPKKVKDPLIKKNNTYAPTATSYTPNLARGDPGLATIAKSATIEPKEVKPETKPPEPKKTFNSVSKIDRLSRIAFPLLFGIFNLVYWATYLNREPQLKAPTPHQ
# T1 sequence (P47870 25-512 limits assumed): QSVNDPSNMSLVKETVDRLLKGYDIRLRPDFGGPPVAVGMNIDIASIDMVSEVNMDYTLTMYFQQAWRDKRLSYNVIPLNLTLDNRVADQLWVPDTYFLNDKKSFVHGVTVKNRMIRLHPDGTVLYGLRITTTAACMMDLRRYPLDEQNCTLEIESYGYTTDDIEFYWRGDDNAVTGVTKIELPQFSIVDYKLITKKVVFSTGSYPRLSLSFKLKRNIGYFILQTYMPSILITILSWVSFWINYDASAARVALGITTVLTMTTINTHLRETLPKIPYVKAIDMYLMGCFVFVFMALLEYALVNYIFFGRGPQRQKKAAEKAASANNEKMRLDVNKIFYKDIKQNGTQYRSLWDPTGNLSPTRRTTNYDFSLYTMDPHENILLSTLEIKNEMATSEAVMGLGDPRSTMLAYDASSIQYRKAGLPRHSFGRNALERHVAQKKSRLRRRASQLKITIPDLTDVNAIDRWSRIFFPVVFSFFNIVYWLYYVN
# T1 sequence (P18507 40-475): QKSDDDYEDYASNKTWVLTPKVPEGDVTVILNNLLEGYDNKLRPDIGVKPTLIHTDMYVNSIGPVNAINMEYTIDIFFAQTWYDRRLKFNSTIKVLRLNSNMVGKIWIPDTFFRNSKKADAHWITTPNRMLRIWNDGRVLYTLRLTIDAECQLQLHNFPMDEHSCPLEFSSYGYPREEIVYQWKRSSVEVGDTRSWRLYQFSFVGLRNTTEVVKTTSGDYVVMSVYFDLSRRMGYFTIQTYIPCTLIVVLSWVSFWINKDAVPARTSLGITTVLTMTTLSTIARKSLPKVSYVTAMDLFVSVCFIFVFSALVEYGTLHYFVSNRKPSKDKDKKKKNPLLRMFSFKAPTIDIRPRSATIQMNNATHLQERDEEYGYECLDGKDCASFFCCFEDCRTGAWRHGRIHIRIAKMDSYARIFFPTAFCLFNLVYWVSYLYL
# Description: (§5) Cellular electrophysiology was used to measure the pharmacological properties of ALLO, ganaxolone and SGE-516 in heterologous cell systems. Compounds were tested for their ability to affect GABA mediated currents at a submaximal agonist dose (GABA EC20=2 μM).
# (§6) LTK cells were stably transfected with the α1β2γ2 subunits of the GABA receptor and CHO cells are transiently transfected with the α4β3γ subunits via the Lipofecatamine method. Cells were passaged at a confluence of about 50-80% and then seeded onto 35 mm sterile culture dishes containing 2 ml culture complete medium without antibiotics or antimycotics. Cells were cultivated at a density that enabled the recording of single cells without visible connections to other cells.
# (§7) Whole-cell currents were measured with HEKA EPC-10 amplifiers using PatchMaster software. Bath solution for all experiments contained (in mM): NaCl 137, KCl 4, CaCl2 1.8, MgCl2 1, HEPES 10, D-Glucose 10, pH 7.4 with NaOH. Intracellular (pipette) solution contained (in mM): KCl 130, MgCl2 1, Mg-ATP 5, HEPES 10, EGTA 5, pH 7.2 with KOH. During experiments, cells and solutions were maintained at room temperature (19° C.-30° C.). For manual patchclamp recordings, cell culture dishes were placed on the dish holder of the microscope and continuously perfused (1 ml/min) with bath solution. After formation of a Gigaohm seal between the patch electrode and the cell (pipette resistance range: 2.5 MΩ-6.0MΩ; seal resistance range: >1 GΩ) the cell membrane across the pipette tip was ruptured to assure electrical access to the cell interior (whole-cell patch configuration).
# (§8) Cells were voltage-clamped at a holding potential of −80 mV. GABAA receptors were activated by 2 μM GABA and compounds were sequentially applied at increasing concentrations for 30 s prior to a 2 s application of GABA. GABA and compounds were applied to cells via the Dynaflow perfusion system (Cellectricon, Sweden). Test compounds were dissolved in DMSO to form 10 mM stock solution and serially diluted to 0.01, 0.1, 1, and 10 μM in bath solution. […] All concentrations of test compound were tested on each cell. The relative percentage potentiation was defined as the peak amplitude in response to GABA EC20 in the presence of test compound divided by the peak amplitude in response to GABA EC20 alone, multiplied by 100.
# (§9) ALLO and ganaxolone are known PAMs of both synaptic and extrasynaptic GABAAR-mediated currents. […] The α1β2γ2 or α4β3δ subunit combinations were chosen as representatives of typical synaptic and extrasynaptic GABAA receptors respectively.
# [4] = system: GABA receptor trafficking; experiment: GABA receptor trafficking measured by GABAergic current density (FIG. 14); type: cell-based; settings: measured by the GABAergic current density
# From the text: As shown in above examples, not all neurosteroids can modulate GABA receptor trafficking.
# [5] = system: tonic current in dentate gyms granule cells (DGGCs); experiment: Acute (allosteric) modulation of tonic current in DGGCs of hippocampal slices; type: cell-based, mice; settings: 100 nM, 10 min acute exposure, then 100 μM picrotoxin; mean±SEM
# Description: as §1, with “GABAARs. […]” for “GABAARs.”
# Whole-cell currents were recorded from the dentate gyms granule cells (DGGCs) in 310-μm-thick coronal hippocampal slices. […] A 5 min period for stabilization after obtaining the whole-cell recording conformation (holding potential of −60 mV) was allowed before currents were recorded using an Axopatch 200B amplifier (Molecular Devices), low-pass filtered at 2 kHz, digitized at 20 kHz (Digidata 1440A; Molecular Devices), and stored for offline analysis.
# For tonic current measurements, an all-points histogram was plotted for a 10 s period before and during 100 μM picrotoxin application, once the response reached a plateau level. […] Series resistance and whole-cell capacitance were continually monitored and compensated throughout the course of the experiment. […] Spontaneous inhibitory post-synaptic currents (sIPSCs) were analyzed using the mini-analysis software (version 5.6.4; Synaptosoft, Decatur, Ga.). […] Only recordings with a minimum of 200 events fitting these criteria were analyzed. sIPSCs amplitude, and frequency from each experimental condition was pooled and expressed as mean±SEM. […]
# [6] = system: sIPSCs in dentate gyms granule cells (DGGCs); experiment: Acute (allosteric) modulation of sIPSCs in DGGCs of hippocampal slices; type: cell-based, mice
# Description: as §1, §2, §3, §4
# α4β3δ GABAA receptors = target: T2, α4β3δ GABAA receptors (Homo sapiens, UniProt O14764+P28472+P48169); experiment: Whole-cell patch clamp, potentiation of GABA EC20 currents at recombinant extrasynaptic-type receptors (CHO cells); type: cell-based
# T2 construct: expressed in transfected cells; host or cells: CHO cells (transient transfection, Lipofectamine)
# T2 sequence (P48169 36-554): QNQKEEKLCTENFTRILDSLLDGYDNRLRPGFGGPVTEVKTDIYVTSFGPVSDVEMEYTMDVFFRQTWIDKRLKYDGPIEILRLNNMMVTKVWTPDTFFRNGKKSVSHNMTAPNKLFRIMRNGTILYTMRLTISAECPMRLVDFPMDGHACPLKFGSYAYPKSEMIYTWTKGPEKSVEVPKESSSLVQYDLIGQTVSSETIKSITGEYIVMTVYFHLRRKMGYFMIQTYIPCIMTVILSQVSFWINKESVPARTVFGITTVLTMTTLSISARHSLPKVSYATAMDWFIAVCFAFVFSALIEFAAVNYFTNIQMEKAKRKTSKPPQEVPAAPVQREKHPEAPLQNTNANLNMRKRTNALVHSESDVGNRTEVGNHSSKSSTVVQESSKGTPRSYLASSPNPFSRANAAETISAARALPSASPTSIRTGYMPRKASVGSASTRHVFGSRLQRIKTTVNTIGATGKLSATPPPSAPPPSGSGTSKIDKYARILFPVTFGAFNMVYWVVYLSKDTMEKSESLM
# T2 sequence (P28472 26-473): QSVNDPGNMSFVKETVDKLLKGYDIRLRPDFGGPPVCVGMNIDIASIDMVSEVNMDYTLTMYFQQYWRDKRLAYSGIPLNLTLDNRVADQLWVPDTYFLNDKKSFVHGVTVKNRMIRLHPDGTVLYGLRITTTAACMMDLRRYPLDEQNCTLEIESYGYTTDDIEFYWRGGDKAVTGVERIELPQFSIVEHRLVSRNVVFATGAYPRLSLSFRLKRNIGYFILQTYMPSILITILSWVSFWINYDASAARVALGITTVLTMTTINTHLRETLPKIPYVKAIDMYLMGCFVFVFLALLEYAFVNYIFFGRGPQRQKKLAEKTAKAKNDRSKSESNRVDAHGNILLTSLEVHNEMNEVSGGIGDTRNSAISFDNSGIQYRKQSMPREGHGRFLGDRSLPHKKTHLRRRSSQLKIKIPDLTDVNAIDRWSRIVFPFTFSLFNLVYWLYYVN
# T2 sequence (O14764 25-452): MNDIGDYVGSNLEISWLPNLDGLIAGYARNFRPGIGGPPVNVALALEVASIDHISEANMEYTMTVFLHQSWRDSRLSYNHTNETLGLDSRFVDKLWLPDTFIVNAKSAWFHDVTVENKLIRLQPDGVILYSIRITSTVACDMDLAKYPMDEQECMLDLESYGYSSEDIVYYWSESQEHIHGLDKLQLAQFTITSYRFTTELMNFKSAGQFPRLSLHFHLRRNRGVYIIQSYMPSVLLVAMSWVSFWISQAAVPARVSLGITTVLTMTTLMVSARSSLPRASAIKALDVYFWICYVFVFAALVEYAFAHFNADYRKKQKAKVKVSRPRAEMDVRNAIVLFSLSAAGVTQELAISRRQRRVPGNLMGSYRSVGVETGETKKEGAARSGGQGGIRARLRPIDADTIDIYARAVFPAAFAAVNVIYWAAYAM
# Description: as §5, §6, §7, §8, §9
# [7] = system: tonic current in dentate gyms granule cells (DGGCs); settings: Abramian et al., 2010, 2014; cited from earlier work
# [8] = 100 nM acute exposure, n = 5 to 7 neurons
compound,measurement,setting,value
"CC(=O)[C@H]1CC[C@H]2[C@@H]3CCC4=CC(=O)CC[C@]4(C)[C@H]3CC[C@]12C [P4, Progesterone]",S408/9 phosphorylation in hippocampal slices,[1],regulated
same,S408/9 phosphorylation (pS408/9/β3) in GT1-7 cells,[2],increase
same,amplitude and density of GABAergic tonic current at varying doses,"[3]; protocol as in FIG. 3, n=6-8 cells",dosage-dependent effect; also recorded: dosage dependent effect
CC(=O)[C@H]1CC[C@H]2[C@@H]3CC[C@H]4C[C@](C)(O)CC[C@]4(C)[C@H]3CC[C@]12C [Ganaxolone],EC50,"α1β2γ2 GABAA receptors; EC50, potentiation of GABA current",256 nM
same,EC50,α1β2γ2 GABAA receptors; pEC50 ± S.E.M.,158 nM
same,"Emax ± S.E.M., α1β2γ2",α1β2γ2 GABAA receptors; relative percentage potentiation of GABA EC20 peak current,400 ± 27%
same,modulation of GABA receptor trafficking,[4],did not modulate GABA receptor trafficking
same,tonic current during acute exposure,[5],78.8±23.2 pA
same,mean sIPSC amplitude before versus during exposure,[6]; 100 nM,no significant difference
same,mean sIPSC decay time in the presence of compound,[6]; 100 nM,significantly increased
same,sIPSC Amplitude,[6]; [8],55.1 ± 0.7 pA
same,sIPSC Decay,[6]; [8],23.6 ± 2.9^c ms
same,sIPSC Frequency,[6]; [8],5.6 ± 1.7 Hz
same,tonic current after exposure and washout,"[3]; 1 μM, 15 min incubation, 30-60 min wash, vehicle 43.9±5.7 pA",57.4±6.3 pA
same,change of tonic current versus vehicle,"[3]; 1 μM, 15 min incubation, wash",did not significantly alter; also recorded: No significant change
same,EC50,α4β3δ GABAA receptors,94 nM
same,Emax,"α4β3δ GABAA receptors; CHO, relative percentage potentiation of GABA EC20 peak current, n = 3, read-out: Emax ± S.E.M., α4β3δ",225%
same,"Emax ± S.E.M., α4β3δ","α4β3δ GABAA receptors; relative percentage potentiation of GABA EC20 peak current, n = 3",225 ± 8%
"C[C@]12CC[C@@H](O)C[C@H]1CC[C@@H]1[C@@H]2CC[C@]2(C)[C@@H](C(=O)CO)CC[C@@H]12 [THDOC, Tetrahydrodeoxy- corticosterone]",sustained effects on GABAergic tonic current,[7],long lasting increase
C[C@@]1(O)CC[C@H]2[C@H](CC[C@@H]3[C@@H]2CC[C@]2(C)[C@@H](C(=O)Cn4cc(C#N)cn4)CC[C@@H]32)C1 [SAGE-217],modulation of GABA receptor trafficking,[4],modulated GABA receptor trafficking
CN1C(=O)CN=C(c2ccccc2)c2cc(Cl)ccc21 [diazepam],Emax,"α1β2γ2 GABAA receptors; LTK, relative percentage potentiation of GABA EC20 peak current, read-out: Emax ± S.E.M., α1β2γ2",184%
same,effect on GABA evoked currents in α4β3δ receptors,α4β3δ GABAA receptors; data not shown,did not alter
